From PubChem BioAssay AID179 (DTP/NCI, 2004)
Activity calls are given as the source filed them.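 How the source made its calls: active means compounds giving half or more protection of infected cells from virus-caused growth loss, again on retest; inactive means the rest.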

System: CEM cells HIV-1 protection, formazan growth assay
Assay: NCI AIDS Antiviral Assay
Conditions: for IC50: measured here: growth of uninfected CEM cells
Outline: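 Soluble formazan readout of cell growth; CEM cells ± HIV-1; 5 drug concs. ≥50% protection → retest; ≥50% again = moderately active; reproducible 100% = confirmed active.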

Row | Structure (SMILES) | EC50 [µM] | IC50 [µM] | outcome
1 | O=C1c2ccccc2CC12Cc1cc3c(cc1C2)CCC3 | > 200 | > 200 | 
2 | O=C1CNN=C(Cn2nc(-c3ccccc3)c3ccccc3c2=O)N1 | > 6.03 | > 6.03 | 
3 | CCCCCCCCCCCCCCCCN1c2ccccc2C(C)(C)C12C=Cc1cccc([N+](=O)[O-])c1O2 (stereo not drawn) | > 200 | > 200 | 
4 | Cc1ccccc1C(=O)N1CCN(C(=O)c2ccccc2C)CC1 | > 145 | > 145 | 
5 | O=C1Nc2n[nH]c(=S)n2NC12c1ccccc1-c1ccccc12 | > 200 | > 100 | 
6 | COc1ccc2[nH]c3c(c2c1)CC(=O)N1CCC[C@H](C1)CC31OCCCO1 | > 200 | 112 | 
7 | CC(NC(=O)C(C)C(=O)Nc1ccc(C(F)(F)F)cc1)C(N)=O (stereo not drawn) | > 200 | > 200 | 
8 | CCN(CC)C(=S)[S-].CCN(CC)C(=S)[S-].O=C(O)CC([S-])C(=O)O.[Fe+3] (stereo not drawn) | > 100 | 38.9 | 
9 | CCOC(=O)C1CCC(=O)N1C(=O)c1ccccc1 (stereo not drawn) | > 200 | > 200 | 
10 | CN1CCCn2c(nc3ccccc3c2=O)C1 | > 1100 | > 1100 | 
11 | CCOC(=O)c1[nH]c2ccccc2c1C(=O)C[C@H](NC(=O)C(F)(F)F)C(=O)OC | > 200 | > 200 | 
12 | CSC1(C)CC2C(CC1N1CCOCC1)C2(C)C (stereo not drawn) | > 95.5 | > 95.5 | 
13 | Cc1cccc(N2C(=O)/C(=C/c3ccc(N(CCC#N)CCC#N)cc3C)N=C2c2cc([N+](=O)[O-])ccc2Cl)c1 |  |  | inactive
14 | NC(=O)C(=CNC(=S)c1ccncc1)C(N)=O | > 200 | > 200 | 
15 | CSc1nc(NC2OC(COC(C)=O)C(OC(C)=O)C(OC(C)=O)C2OC(C)=O)c(N=CC=Nc2c(NC3OC(COC(C)=O)C(OC(C)=O)C(OC(C)=O)C3OC(C)=O)nc(SC)n(C)c2=O)c(=O)n1C (stereo not drawn) |  |  | inactive
16 | N#CCCN(c1ccc(/C=C2\N=C(c3ccc(Cl)cc3)OC2=O)cc1)S(=O)(=O)c1ccccc1 | > 72.4 | > 72.4 | 
17 | Cc1ccc(SSc2ccc(C)c(Cl)c2)cc1Cl | > 200 | > 200 | 
18 | CCOC(=O)C1NS(=O)(=O)NC(C(=O)OCC)NS(=O)(=O)N1 (stereo not drawn) |  |  | inactive
19 | Cc1ccc(C)c(N=C2NC(=O)C(CC(=O)Nc3ccc(Cl)cc3Cl)S2)c1 (stereo not drawn) | > 44.7 | 19.5 | 
20 | Cc1ccc(N=Nc2c(N)nn3cc4c(nc23)-c2ccccc2CC4)cc1 | > 100 | > 100 | 
21 | COc1cc2ccc(CC#N)cc2cc1OC |  |  | inactive
22 | CC#CCCC1CCCCNC1=O (stereo not drawn) | > 138 | > 138 | 
23 | Cc1ccc(S(=O)(=O)NC2CCCCO2)cc1 (stereo not drawn) | > 708 | > 708 | 

Row | Structure (SMILES) | EC50 [µM] | IC50 [µM] | outcome
24 | CN1CCN(CCSC2Cc3cc(Cl)ccc3Sc3ccccc32)CC1 (stereo not drawn) | > 64.6 | 7.76 | 
25 | O=C(Cc1nc2sc3c(c2c(=O)[nH]1)CCCC3)Nc1ccccc1 |  |  | inactive
26 | [N-]=[N+]=Nc1ccccc1-[n+]1noc([O-])c1Br | > 457 | > 457 | 
27 | CCOC(=O)c1cc2nc3ccccc3c(=O)n2c2ccccc12 | > 200 | > 200 | 
28 | Clc1ccc(-c2onc3ccc(Br)cc23)cc1 | > 162 | > 162 | 
29 | N#C/C(=C(\O)c1ccccc1)c1nc2ccccc2[nH]1 | > 69.2 | > 69.2 | 
30 | Cc1cc(O)c(C=O)c2c1C(=O)Oc1c(COCO/C=C/C(=O)O)c(O)c(C(=O)O)c(C)c1O2 | 52.5 | 61.7 | 
31 | CC(Nc1cc(Cl)cc(Cl)c1)c1ccncc1 (stereo not drawn) | > 200 | 15.8 | 
32 | COc1ccc(OC)c2[nH]c(CCc3nc4c(OC)ccc(OC)c4[nH]3)nc12 |  |  | inactive
33 | COc1ccc2nc3cccc([N+](=O)[O-])c3c(NCCO)c2c1 | > 2 | 0.0309 | 
34 | O=[N+]([O-])c1ccc(/C=C/c2c[n+]([O-])nc3ccccc23)cc1 | > 200 | > 200 | 
35 | CCOC(=O)c1nnsc1NN | > 200 | 166 | 
36 | CCN(CC)Cc1c(OC)ccc2[nH]c3c4ccc(Cl)cc4ncc3c12 | > 200 | 1.1 | 
37 | Cn1cc([N+](=O)[O-])cc1C(=O)Nc1cc(C(=O)Nc2ccc(S(=O)(=O)O)c3cc(S(=O)(=O)O)ccc23)n(C)c1 | > 398 | 178 | 
38 | COc1ccc(CC2C(=O)NC(=O)NC2=O)cc1OC | > 200 | > 200 | 
39 | CC(C)C(=O)OCN(C)c1nc(N(C)COC(=O)C(C)C)nc(N(C)COC(=O)C(C)C)n1 | > 200 | 18.6 | 
40 | CC(=O)N(C(C)=O)n1c(Cc2ccc(Cl)cc2)n[nH]c1=O | > 200 | > 200 | 
41 | CN1C(=S)C2=C(c3ccccc3)N(C)C(=S)C2=C1c1ccccc1 | 102 | > 200 | 
42 | CC1/C=C/[C@@]2(C)CCC(C(C)(C)O)C2C(O)C[C@](C)(O)/C=C/C1 (stereo partly drawn) |  |  | inactive
43 | COc1ccccc1N1C(=O)CC(=O)N(C(=O)CCCCCCCCC(=O)N2C(=O)CC(=O)N(c3ccccc3OC)C2=S)C1=S | > 200 | 95.5 | 
44 | O=c1n(CC2CS2)c2ccccc2n1CC1CS1 (stereo not drawn) | > 339 | 6.61 | 
45 | O=C1C2Nc3ccccc3SC2C(=O)N1c1ccc(Br)cc1 (stereo not drawn) | > 19.1 | > 19.1 | 
46 | COc1cc2c3cc1Oc1c(O)c(OC)cc4c1[C@H](Cc1ccc(cc1)Oc1cc(ccc1O)C[C@H]3N(C)CC2)N(C)CC4 |  |  | inactive

Row | Structure (SMILES) | EC50 [µM] | IC50 [µM] | outcome
47 | CCOC(=O)C(CCC1=NC(C)(C)CC(C)O1)C(=O)OCC (stereo not drawn) | > 200 | > 200 | 
48 | C=CS(=O)(=O)O | > 200 | > 200 | 
49 | c1ccc(COc2ccc3[nH]c4c(ncc5[nH]c6ccccc6c54)c3c2)cc1 |  |  | inactive
50 | Cn1ccc2c(c1=O)C(=O)OC2(C)C | > 200 | > 200 | 
51 | CCCCN(CC)C(=O)C(=O)C1C(=O)Nc2ccccc2S1=O (stereo not drawn) | > 204 | > 204 | 
52 | OCC1OC2(CCCC3CC32)O[C@H]1CO (stereo partly drawn) |  |  | inactive
53 | COC(=O)[C@H](Cc1ccccc1)NP(=O)(OCCC#N)OCC1OC(n2cc(C)c(=O)[nH]c2=O)CC1N=[N+]=[N-] (stereo partly drawn) | 0.513 | > 200 | 
54 | OCC1C2CCC3(OCCO3)C12 (stereo not drawn) | > 200 | > 200 | 
55 | CC1CC[C@]2(C(=O)O)CCC3(C)C(=CCC4[C@@]5(C)CC[C@H](OS(=O)(=O)c6ccccc6)C(C)(C)C5CC[C@]43C)[C@@H]2[C@H]1C (stereo partly drawn) |  |  | inactive
56 | COc1ccc2c(C3(C)OC(=O)c4ccccc43)cccc2c1 (stereo not drawn) | > 40.7 | > 40.7 | 
57 | O=[N+]([O-])c1ccc2[nH]nc(OCc3ccccc3Cl)c2c1 | > 129 | > 129 | 
58 | COc1ccc(N2C(=O)C3c4[nH]c5cc(Cl)ccc5c4C4CCC(C(C)(C)C)CC4C3C2=O)cc1 (stereo not drawn) | > 200 | 91.2 | 
59 | COC(=O)CCc1ccc2c(c1)C(=O)CC2 | > 200 | > 200 | 
60 | O=C1C(=O)c2ccccc2C(O)=C1Sc1ccc(Cl)cc1 | > 200 | 17.4 | 
61 | CCOP(=O)(OCC)[C@]12C[C@@H](C)C=C[C@H]1COC2=O | > 200 | 135 | 
62 | CCOc1ccc(OCC(=O)O)c2c1CCCC2=O |  |  | inactive
63 | O=C1N/C(=C\c2ccccc2)C(=O)N1CN1CCCC1 | > 200 | 115 | 
64 | N#Cc1cccc(C(Br)S(=O)(=O)c2ccccc2)c1 (stereo not drawn) | > 77.6 | 72.4 | 
65 | COc1cc(/C=C/C(=O)OC[C@]23O[C@H]2[C@@H](OC2OC(C)C(O)C(O)C2O)C2C=CO[C@@H](OC4OC(CO)C(O)C(O)C4O)C23)ccc1O (stereo partly drawn) | > 200 | > 200 | 
66 | CC(C)CN(CC(C)C)C(=O)C1CCCC[C@@H]1C(=O)O (stereo partly drawn) | > 891 | > 891 | 
67 | COc1cc2c(cc1OC)C(C1(O)CCCCC1)NCC2 (stereo not drawn) | > 851 | 457 | 
68 | C=CCCC(=O)CC(O)(C(F)(F)F)C(F)(F)F |  |  | inactive
69 | Cc1cc(C)cc(/C(C#N)=C/c2ccc(N(C)C)cc2)c1 | > 2 | 0.102 | 

Row | Structure (SMILES) | EC50 [µM] | IC50 [µM] | outcome
70 | CC1(C)OC(=S)N(c2ccccc2)C12C=Cc1ccccc1O2 (stereo not drawn) | > 200 | 35.5 | 
71 | COc1ccc(-c2nc(-c3cnccn3)n(C3OC(CO)C(O)C3O)n2)cc1 (stereo not drawn) | > 200 | > 200 | 
72 | O=C1NC(=O)C(Cc2ccccc2)(Cc2ccccc2)S1 | > 17.4 | > 17.4 | 
73 | CN(C)C(=O)/N=N/C(=O)N(C)C | > 89.1 | 67.6 | 
74 | Cn1c(N)c(Cc2ccc(Cl)cc2)c(=O)[nH]c1=O | > 200 | > 200 | 
75 | C=C1C(=O)OC2C3C(C)=CC(=O)C3=C(C)CC[C@@H]12 (stereo partly drawn) | > 30.9 | 2.04 | 
76 | CC(C)(C)OC(=O)NCCCCC(NC(=O)c1ccccc1)C(N)=O (stereo not drawn) | > 200 | > 200 | 
77 | CC[C@@]12N=C(N(C)C)C[C@]1(O)ON=C2C | > 200 | > 200 | 
78 | CC(=O)NNc1nc(C)c(C(=O)NNC(=O)C(=O)Nc2ccc(C)c(C)c2)s1 | > 170 | 31.6 | 
79 | Cn1cc(N)cc1C(=O)Nc1cc(C(=O)Nc2cc(S(=O)(=O)O)c3cc(S(=O)(=O)O)cc(S(=O)(=O)O)c3c2)n(C)c1 | 53.7 | 339 | 
80 | NC(=O)c1cccc(NC=O)c1 | > 1510 | 1290 | 
81 | c1ccc2c(c1)nc1n2CC2(CS1)CSc1nc3ccccc3n1C2 |  |  | inactive
82 | O=C(O)C1(Cc2ccccc2)Cc2cc3c(cc2C1)CCC3 | > 200 | 93.3 | 
83 | CCSc1cc(C(=O)OC)c2n(c1=O)CCCC2 | > 200 | > 200 | 
84 | O=C(Cc1cc[n+]([O-])cc1)C(=O)Nc1cc(Cl)c(Cl)cc1Cl | > 692 | 631 | 
85 | O=C1CN(C(=O)C2CCCN2C(=O)C2CCCN2)C(=O)CN1 (stereo not drawn) | > 200 | > 200 | 
86 | Cc1ccc(C(=O)O)cc1NC(=O)c1cc(/C=C/c2ccccc2)[nH]c(=S)n1 | > 240 | > 240 | 
87 | COc1nc2ncc([C@@H](OC(C)=O)[C@@H](COC(C)=O)OC(C)=O)nc2c(=O)[nH]1 | > 200 | > 200 | 
88 | Cc1ccc(NCCCN2CCN(CCCNc3ccc(C)c4sc5ccccc5c(=O)c34)CC2)c2c(=O)c3ccccc3sc12 | > 100 | > 100 | 
89 | C=C1CC2CC(O)CC(C1)C2 (stereo not drawn) |  |  | inactive
